In PubChem BioAssay (NCI):
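Where inhibition never reached the appropriate level, the endpoint shown equals the highest concentration tested. Otherwise, values were interpolated linearly from a five-concentration, 48-hour dose response in 96-well plates. GI50: concentration for 50% inhibition of growth. Definition used: TGI = concentration required for complete inhibition of growth.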

How the values were obtained:
Assay in all cases: NCI tumour cell line growth inhibition, 48 h
[1] = test system: NCI-H522 lung
[2] = test system: UO-31 renal
[3] = test system: UACC-257 melanoma
[4] = test system: U251 CNS
[5] = test system: COLO 205 colon
[6] = test system: UACC-62 melanoma
[7] = test system: A498 renal
[8] = test system: NCI-H23 lung
[9] = test system: A549 NSCLC
[10] = test system: CCRF-CEM leukemia
[11] = test system: HOP-62 NSCLC
[12] = test system: SF-539 CNS
[13] = test system: OVCAR-3 ovarian
[14] = test system: IGROV1 ovarian
[15] = test system: HCT-116 colon
[16] = test system: M14 melanoma
[17] = test system: EKVX NSCLC
[18] = test system: HCC-2998 colon
[19] = test system: MCF7 breast
[20] = test system: RPMI-8226 leukemia
[21] = test system: NCI-H226 lung
[22] = test system: HOP-92 NSCLC
[23] = test system: SN12C renal
[24] = test system: SK-MEL-2 melanoma
[25] = test system: ACHN renal
[26] = test system: SK-MEL-5 melanoma
[27] = test system: DU-145 prostate
[28] = test system: MDA-MB-231 breast
[29] = test system: SW-620 colon
[30] = test system: T-47D breast
[31] = test system: SNB-75 CNS
[32] = test system: OVCAR-5 ovarian
[33] = test system: RXF 393 renal
[34] = test system: OVCAR-4 ovarian
[35] = test system: SF-268 CNS
[36] = test system: MOLT-4 leukemia
[37] = test system: NCI/ADR-RES ovarian
[38] = test system: TK-10 renal
[39] = test system: 786-0 renal
[40] = test system: NCI-H460 lung
[41] = test system: BT-549 breast
[42] = test system: HCT-15 colon
[43] = test system: SK-OV-3 ovarian
[44] = test system: HT29 colon
[45] = test system: OVCAR-8 ovarian
[46] = test system: MDA-MB-435
[47] = test system: KM12 colon
[48] = test system: SNB-19 CNS
[49] = test system: SK-MEL-28 melanoma
[50] = test system: SR leukemia
[51] = test system: SF-295 CNS
[52] = test system: MALME-3M melanoma
[53] = test system: HL-60(TB) leukemia
[54] = test system: K-562 leukemia
[55] = test system: HS 578T breast
[56] = test system: LOX IMVI melanoma
[57] = test system: PC-3 prostate
[58] = test system: CAKI-1 renal

`O=C(C1CC1)N1CC[C@@H](Cc2n[nH]c(=O)n2-c2ccc(-c3ccc4occc4c3)cc2)C1` gave a GI50 [1] of 20.9 µM, a TGI [1] of over 92 µM and a GI50 [2] of 1.91 µM. The TGI [2] was 65.4 µM, the GI50 [3] was 29 µM and the TGI [3] was over 96.6 µM. For the same compound, the GI50 [4] was 25.4 µM, the TGI [4] was over 100 µM and the GI50 [5] was 15 µM. The TGI [5] was 72.5 µM, the GI50 [6] was 21.1 µM and the TGI [6] was over 100 µM. For the same compound, the GI50 [7] was 15 µM, the TGI [7] was over 85.4 µM and the GI50 [8] was 39.1 µM. It also gave a TGI [8] of over 100 µM, a GI50 [9] of 16.9 µM and a TGI [9] of over 100 µM. It also gave a GI50 [10] of 15.6 µM, a TGI [10] of over 100 µM and a GI50 [11] of 23.4 µM. The TGI [11] was over 100 µM, the GI50 [12] was 8.16 µM and the TGI [12] was over 100 µM. For the same compound, the GI50 [13] was 15.8 µM, the TGI [13] was over 73.7 µM and the GI50 [14] was 21.2 µM. It also gave a TGI [14] of over 100 µM, a GI50 [15] of 14.3 µM and a TGI [15] of 84 µM. It also gave a GI50 [16] of 17.2 µM, a TGI [16] of over 100 µM and a GI50 [17] of 12.6 µM. It also gave a TGI [17] of over 100 µM, a GI50 [18] of 33.9 µM and a TGI [18] of over 100 µM. It also gave a GI50 [19] of 1.62 µM, a TGI [19] of over 100 µM and a GI50 [20] of 2.82 µM. The TGI [20] was over 75.4 µM, the GI50 [21] was 19.6 µM and the TGI [21] was over 100 µM. For the same compound, the GI50 [22] was 24.4 µM, the TGI [22] was over 100 µM and the GI50 [23] was 23.2 µM. It also gave a TGI [23] of over 100 µM, a GI50 [24] of 21.5 µM and a TGI [24] of 70.3 µM. It also gave a GI50 [25] of 11.8 µM, a TGI [25] of 54.8 µM and a GI50 [26] of 12 µM. For the same compound, the TGI [26] was 33.6 µM, the GI50 [27] was 23.4 µM and the TGI [27] was over 100 µM. For the same compound, the GI50 [28] was 20.4 µM, the TGI [28] was over 100 µM and the GI50 [29] was 27.6 µM. For the same compound, the TGI [29] was over 100 µM, the GI50 [30] was 18 µM and the TGI [30] was over 96.5 µM. It also gave a GI50 [31] of 13.7 µM, a TGI [31] of over 94.1 µM and a GI50 [32] of 42.5 µM. The TGI [32] was over 100 µM, the GI50 [33] was 24.2 µM and the TGI [33] was over 100 µM. It also gave a GI50 [34] of 9.02 µM, a TGI [34] of over 94.5 µM and a GI50 [35] of 12.4 µM. The TGI [35] was over 100 µM, the GI50 [36] was 6.09 µM and the TGI [36] was over 88.5 µM. It also gave a GI50 [37] of 30.8 µM, a TGI [37] of over 100 µM and a GI50 [38] of 28.3 µM. For the same compound, the TGI [38] was over 100 µM, the GI50 [39] was 12.3 µM and the TGI [39] was over 100 µM. The GI50 [40] was 3.2 µM, the TGI [40] was over 100 µM and the GI50 [41] was 1.65 µM. For the same compound, the TGI [41] was 48.7 µM, the GI50 [42] was 11.2 µM and the TGI [42] was over 100 µM. It also gave a GI50 [43] of 25.4 µM, a TGI [43] of over 100 µM and a GI50 [44] of 7.51 µM. It also gave a TGI [44] of over 81.1 µM, a GI50 [45] of 25.3 µM and a TGI [45] of over 100 µM. For the same compound, the GI50 [46] was 14.8 µM, the TGI [46] was over 87.6 µM and the GI50 [47] was 17.6 µM. For the same compound, the TGI [47] was over 100 µM, the GI50 [48] was 17 µM and the TGI [48] was over 100 µM. The GI50 [49] was 32 µM, the TGI [49] was over 100 µM and the GI50 [50] was 23.9 µM. It also gave a TGI [50] of over 100 µM, a GI50 [51] of 11.5 µM and a TGI [51] of over 100 µM. It also gave a GI50 [52] of 22.4 µM, a TGI [52] of over 87.8 µM and a GI50 [53] of 0.131 µM. For the same compound, the TGI [53] was over 44.4 µM, the GI50 [54] was 8.18 µM and the TGI [54] was over 100 µM. The GI50 [55] was 21.3 µM, the TGI [55] was over 100 µM and the GI50 [56] was 10.3 µM. The TGI [56] was 51.3 µM, the GI50 [57] was 23.2 µM and the TGI [57] was over 100 µM.

Work on `Cc1oc2nc[nH]c(=O)c2c1C(=O)/C=C/c1ccc(Br)cc1` yielded a GI50 [1] of 1.89 µM, a TGI [1] of 5.76 µM and a GI50 [2] of 0.781 µM. The TGI [2] was 7.39 µM, the GI50 [3] was 2.37 µM and the TGI [3] was 11.3 µM. For the same compound, the GI50 [4] was 1.44 µM, the TGI [4] was 3.17 µM and the GI50 [5] was 1.7 µM. For the same compound, the TGI [5] was 5.5 µM, the GI50 [6] was 1.33 µM and the TGI [6] was 3.03 µM. For the same compound, the GI50 [7] was 2.46 µM, the TGI [7] was 6.82 µM and the GI50 [8] was 2.07 µM. It also gave a TGI [8] of 7.82 µM, a GI50 [9] of 2.73 µM and a TGI [9] of 14.2 µM. For the same compound, the GI50 [10] was 1.01 µM, the TGI [10] was 30.6 µM and the GI50 [11] was 2.62 µM. For the same compound, the TGI [11] was 9.73 µM, the GI50 [12] was 1.73 µM and the TGI [12] was 4.64 µM. It also gave a GI50 [13] of 1.85 µM, a TGI [13] of 5.74 µM and a GI50 [14] of 1.81 µM. For the same compound, the TGI [14] was 10.2 µM, the GI50 [15] was 1.26 µM and the TGI [15] was 2.82 µM. For the same compound, the GI50 [16] was 2.14 µM, the TGI [16] was 8.53 µM and the GI50 [17] was 2.37 µM. It also gave a TGI [17] of 12.8 µM, a GI50 [18] of 1.7 µM and a TGI [18] of 3.26 µM. The GI50 [19] was 0.505 µM, the TGI [19] was 11.5 µM and the GI50 [20] was 1.36 µM. The TGI [20] was 6.91 µM, the GI50 [22] was 1.35 µM and the TGI [22] was 6.86 µM. It also gave a GI50 [23] of 2.95 µM, a TGI [23] of 11.9 µM and a GI50 [24] of 2.34 µM. For the same compound, the TGI [24] was 7.1 µM, the GI50 [25] was 1.6 µM and the TGI [25] was 5.61 µM. It also gave a GI50 [26] of 1.56 µM, a TGI [26] of 3.27 µM and a GI50 [27] of 2.03 µM. It also gave a TGI [27] of 7.85 µM, a GI50 [28] of 3.47 µM and a TGI [28] of 17.8 µM. The GI50 [29] was 2.16 µM, the TGI [29] was 7.09 µM and the GI50 [30] was 1.86 µM. The TGI [30] was 14.2 µM, the GI50 [31] was 1.23 µM and the TGI [31] was 9.62 µM. The GI50 [32] was 2.93 µM, the TGI [32] was 9.32 µM and the GI50 [33] was 1.41 µM. For the same compound, the TGI [33] was 3.22 µM, the GI50 [34] was 2.51 µM and the TGI [34] was 13.1 µM. The GI50 [35] was 3.08 µM, the TGI [35] was 17.5 µM and the GI50 [36] was 2.84 µM. For the same compound, the TGI [36] was 17.9 µM, the GI50 [37] was 1.84 µM and the TGI [37] was 20.8 µM. For the same compound, the GI50 [38] was 4.46 µM, the TGI [38] was 13.3 µM and the GI50 [39] was 1.8 µM. It also gave a TGI [39] of 3.97 µM, a GI50 [40] of 3.25 µM and a TGI [40] of 11 µM. It also gave a GI50 [41] of 1.74 µM, a TGI [41] of 4.13 µM and a GI50 [42] of 1.09 µM. It also gave a TGI [42] of 4.96 µM, a GI50 [43] of 4.08 µM and a TGI [43] of 15.5 µM. It also gave a GI50 [44] of 2.36 µM, a TGI [44] of 6.3 µM and a GI50 [45] of 2.08 µM. It also gave a TGI [45] of 88.3 µM, a GI50 [46] of 2 µM and a TGI [46] of 6.69 µM. The GI50 [47] was 1.51 µM, the TGI [47] was 3.44 µM and the GI50 [48] was 1.8 µM. It also gave a TGI [48] of 5.44 µM, a GI50 [49] of 2.39 µM and a TGI [49] of 8.3 µM. It also gave a GI50 [50] of 1.35 µM, a TGI [50] of 16.3 µM and a GI50 [51] of 4.22 µM. For the same compound, the TGI [51] was 15 µM, the GI50 [52] was 1.89 µM and the TGI [52] was 6 µM. It also gave a GI50 [58] of 1.34 µM, a TGI [58] of 11.5 µM and a GI50 [53] of 2.32 µM. For the same compound, the TGI [53] was 10.3 µM, the GI50 [54] was 0.798 µM and the TGI [54] was over 100 µM. It also gave a GI50 [55] of 3.49 µM, a TGI [55] of 38.9 µM and a GI50 [56] of 1.03 µM. For the same compound, the TGI [56] was 2.43 µM, the GI50 [57] was 2.36 µM and the TGI [57] was 15.6 µM.
